Source: patent US20250152585A1, “PHARMACEUTICAL COMPOUND” (Duke Street Bio Limited, priority 2022, published 2025)
Read-outs that look alike come from different tables or passages of the source.

Legend:
[1] = molecular target: T1, full length N-terminally FLAG-tagged PARP1 (Homo sapiens, UniProt P09874); assay: PARP1 probe displacement HTRF assay; settings: for Selectivity: PARP1 over PARP2, ratio Kd (PARP2)/Kd (PARP1); for Kd: read-out: PARP1 HTRF, binned Kd
[2] = molecular target: T1, full length N-terminally FLAG-tagged PARP1; assay: PARP1 biochemical DELFIA assay (auto-PARylation); parameters: recombinant full length human N-terminally FLAG-tagged PARP1
[3] = molecular target: T2, N-terminally FLAG-tagged PARP2 (amino acids 1-583) (Homo sapiens, UniProt Q9UGN5); assay: PARP2 probe displacement HTRF assay; format: binding; settings: binned Kd
T2 construct: N-terminally FLAG-tagged PARP2 (amino acids 1-583)
Experimental: Data analysis was performed identical as for PARP1.

[4] = binned IC50, biochemical auto-PARylation assay
[5] = binned IC50, PARP1 biochemical DELFIA assay

T2 sequence (Q9UGN5 whole entry, the tested form may be a part): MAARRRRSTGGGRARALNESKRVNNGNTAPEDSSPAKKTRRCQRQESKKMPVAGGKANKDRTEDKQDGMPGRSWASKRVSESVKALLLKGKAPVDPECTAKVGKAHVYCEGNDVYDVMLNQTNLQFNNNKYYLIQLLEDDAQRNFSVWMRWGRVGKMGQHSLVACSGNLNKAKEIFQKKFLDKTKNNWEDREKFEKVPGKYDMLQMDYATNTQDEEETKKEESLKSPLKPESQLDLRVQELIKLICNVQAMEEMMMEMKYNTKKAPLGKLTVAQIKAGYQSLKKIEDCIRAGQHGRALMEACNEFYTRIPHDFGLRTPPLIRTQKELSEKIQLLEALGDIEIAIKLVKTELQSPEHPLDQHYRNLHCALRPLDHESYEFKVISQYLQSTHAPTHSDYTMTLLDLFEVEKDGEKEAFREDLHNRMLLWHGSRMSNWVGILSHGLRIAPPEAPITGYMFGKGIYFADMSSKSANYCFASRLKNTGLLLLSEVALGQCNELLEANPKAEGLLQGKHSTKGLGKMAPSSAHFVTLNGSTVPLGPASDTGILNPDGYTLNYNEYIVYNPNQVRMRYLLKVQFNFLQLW
T1 sequence (P09874 whole entry): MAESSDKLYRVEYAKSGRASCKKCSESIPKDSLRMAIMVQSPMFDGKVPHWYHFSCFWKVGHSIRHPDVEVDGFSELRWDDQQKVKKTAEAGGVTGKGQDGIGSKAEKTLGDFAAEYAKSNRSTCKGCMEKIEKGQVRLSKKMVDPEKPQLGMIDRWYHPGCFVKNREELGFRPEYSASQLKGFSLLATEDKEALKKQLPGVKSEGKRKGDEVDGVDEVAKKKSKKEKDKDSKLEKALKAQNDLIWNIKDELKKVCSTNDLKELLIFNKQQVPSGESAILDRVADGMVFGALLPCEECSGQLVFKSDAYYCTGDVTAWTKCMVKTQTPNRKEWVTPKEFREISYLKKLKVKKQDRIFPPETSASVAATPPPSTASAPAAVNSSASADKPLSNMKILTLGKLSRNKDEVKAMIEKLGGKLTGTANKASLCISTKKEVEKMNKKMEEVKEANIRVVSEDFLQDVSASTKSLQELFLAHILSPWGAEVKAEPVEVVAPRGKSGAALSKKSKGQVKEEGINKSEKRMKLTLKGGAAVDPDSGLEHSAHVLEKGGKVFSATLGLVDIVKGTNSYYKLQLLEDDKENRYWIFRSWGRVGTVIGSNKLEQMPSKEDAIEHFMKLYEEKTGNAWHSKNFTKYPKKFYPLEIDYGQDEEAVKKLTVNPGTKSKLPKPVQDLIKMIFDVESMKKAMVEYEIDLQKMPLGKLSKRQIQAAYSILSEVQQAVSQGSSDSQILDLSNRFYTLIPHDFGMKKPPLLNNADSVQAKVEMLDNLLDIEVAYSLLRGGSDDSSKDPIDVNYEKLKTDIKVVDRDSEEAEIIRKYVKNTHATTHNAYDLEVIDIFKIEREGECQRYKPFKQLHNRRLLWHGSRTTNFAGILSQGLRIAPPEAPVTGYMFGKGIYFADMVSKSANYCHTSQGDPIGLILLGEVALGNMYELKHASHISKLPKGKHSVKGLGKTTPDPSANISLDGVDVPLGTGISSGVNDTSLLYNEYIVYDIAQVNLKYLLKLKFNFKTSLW

SMILES	Kd ([1]; probe displacement HTRF)	IC50 [2, 4]	Kd ([3]; probe displacement HTRF)	Kd ([1]; PARP1 probe displacement HTRF)	IC50 [2, 5]	Kd ([3]; PARP2 probe displacement HTRF)	Selectivity ([1]; probe displacement HTRF)
CC(=O)Nc1ccc(N2CCC(N3CCC(c4cc5ccccc5c(=O)[nH]4)C3)CC2)cc1 (single isomer, unassigned) [Compound 289a]	100 to 1000 nM	100 to 1000 nM	1000 to 10000 nM				− (− indicates a value of less than 10)
CNC(=O)c1ccc(N2CCC(N3CCCC(c4nc5ccncc5c(=O)[nH]4)C3)CC2)cn1 (single isomer, unassigned) [Compound 93b]				1000 to 10000 nM	1000 to 10000 nM	> 10000 nM	− (− indicates a value of less than 10)
CCCc1ccc(C2CCN(C3CCN(c4ccc(C(=O)NC)nc4F)CC3)C2)[nH]c1=O (single isomer, unassigned) [Compound 269b]	100 to 1000 nM	100 to 1000 nM	> 10000 nM				+ (+ indicates a value of 10 to less than 50)
O=C(NCCF)c1ccc(N2CCC(N3CCC(c4nc5ccccc5c(=O)[nH]4)C3)CC2)cn1 (single isomer, unassigned) [Compound 117a]				10 to 100 nM	10 to 100 nM	100 to 1000 nM	+ (+ indicates a value of 10 to less than 50)
CCc1ccc(C2CCN(C3CCN(c4cnc(C(=O)NC)cc4C(F)(F)F)CC3)C2)[nH]c1=O (single isomer, unassigned) [Compound 298b]	10 to 100 nM	10 to 100 nM	1000 to 10000 nM				+++ (+++ indicate a value of at least 100)
CCc1ccc(C2CCN(C3CCN(c4ccc(C(=O)NCCOC)nc4)CC3)C2)[nH]c1=O (racemic) [Compound 160rac]				< 10 nM	< 10 nM	1000 to 10000 nM	+++ (+++ indicate a value of at least 100)
CNC(=O)c1ccc(N2CCC(N3CCC(c4cc5nccc(N)c5c(=O)[nH]4)C3)CC2)cn1 (racemic) [Compound 200rac]				10 to 100 nM	10 to 100 nM	> 10000 nM	+++ (+++ indicate a value of at least 100)
CNC(=O)c1ccc(N2CCC(N3CCC(c4ccc(CC5CC5)c(=O)[nH]4)C3)CC2)cn1 (single isomer, unassigned) [Compound 213b]				< 10 nM	< 10 nM	100 to 1000 nM	+++ (+++ indicate a value of at least 100)
CS(=O)(=O)Nc1ccc(N2CCC(N3CCC(c4cc5ccccc5c(=O)[nH]4)C3)CC2)cc1 (single isomer, unassigned) [Compound 251a]	100 to 1000 nM	100 to 1000 nM	1000 to 10000 nM				− (− indicates a value of less than 10)
CNC(=O)c1ccc(N2CCC(N3CCC(c4cc5cccc(F)c5c(=O)[nH]4)C3)CC2)c(F)c1 (single isomer, unassigned) [Compound 371b]	10 to 100 nM	10 to 100 nM	1000 to 10000 nM				++ (++ indicates a value of 50 to less than 100)
CNC(=O)c1ccc(N2CCC(N3CCCC(c4nc5sc(C)c(C)c5c(=O)[nH]4)C3)CC2)cn1 (single isomer, unassigned) [Compound 199a]				< 10 nM	< 10 nM	100 to 1000 nM	+++ (+++ indicate a value of at least 100)
CNC(=O)c1ccc(N2CCC(N3CCC(c4nc5[nH]nc(C(F)(F)F)c5c(=O)[nH]4)C3)CC2)c(F)n1 (single isomer, unassigned) [Compound 267b]	< 10 nM	< 10 nM	10 to 100 nM				+++ (+++ indicate a value of at least 100)
CNC(=O)c1ccc(N2CCC(N3CCCC(c4nc5ccccc5c(=O)[nH]4)C3)CC2)c(Cl)n1 (single isomer, unassigned) [Compound 94a]				10 to 100 nM	10 to 100 nM	1000 to 10000 nM	+ (+ indicates a value of 10 to less than 50)
CNC(=O)c1ccc(N2CCC(N3CCC(c4[nH]c(=O)c5ccccc5c4C(F)(F)F)C3)CC2)cn1 (single isomer, unassigned) [Compound 404b]	< 10 nM	< 10 nM	1000 to 10000 nM				+++ (+++ indicate a value of at least 100)
CNC(=O)c1ccc(N2CCC(N3CCC(O)(c4nc5ccccc5c(=O)[nH]4)C3)CC2)cn1 (single isomer, unassigned) [Compound 140a]				10 to 100 nM	100 to 1000 nM	> 10000 nM	++ (++ indicates a value of 50 to less than 100)
CNC(=O)c1cnc(N2CCC(N3CCCC(c4nc5ccccc5c(=O)[nH]4)C3)CC2)cn1 (single isomer, unassigned) [Compound 99b]				100 to 1000 nM	10 to 100 nM	100 to 1000 nM	− (− indicates a value of less than 10)
CNC(=O)c1cc(C)c(N2CCC(N3CCC(c4cc5ccc(F)cc5c(=O)[nH]4)C3)CC2)cn1 (single isomer, unassigned) [Compound 202b]				< 10 nM	< 10 nM	10 to 100 nM	+ (+ indicates a value of 10 to less than 50)
O=c1[nH]c2ccc(N3CCC(N4CCC(c5cc6ccccc6c(=O)[nH]5)C4)CC3)cc2[nH]1 (racemic) [Compound 413rac]	< 10 nM	< 10 nM	100 to 1000 nM				+++ (+++ indicate a value of at least 100)
CNC(=O)c1ccc(N2CC(N3CCCC(Cc4nc5ccccc5c(=O)[nH]4)C3)C2)cn1 (single isomer, unassigned) [Compound 51a]				100 to 1000 nM	100 to 1000 nM	> 10000 nM	+ (+ indicates a value of 10 to less than 50)
CCc1ccc(C2CCN(C3CCN(c4ccc(C(=O)NCCF)nc4)CC3)C2)[nH]c1=O (single isomer, unassigned) [Compound 165b]				10 to 100 nM	10 to 100 nM	1000 to 10000 nM	+++ (+++ indicate a value of at least 100)

Further lines, with some results ahead:

Kd ([1]; probe displacement HTRF)	IC50 [2, 4]	Kd ([3]; probe displacement HTRF)	Kd ([1]; PARP1 probe displacement HTRF)	IC50 [2, 5]	Kd ([3]; PARP2 probe displacement HTRF)	SMILES	Selectivity ([1]; probe displacement HTRF)
			< 10 nM	< 10 nM	> 10000 nM	CNC(=O)c1ccc(N2CCC(N3CCCC(c4nc5c(F)cccc5c(=O)[nH]4)C3)CC2)cn1 (single isomer, unassigned) [Compound 114a]	+++ (+++ indicate a value of at least 100)
10 to 100 nM	10 to 100 nM	100 to 1000 nM				CCc1ccc(C2CCN(C3CCN(c4ccc(C(=O)NC)c(F)c4)CC3)C2)[nH]c1=O (racemic) [Compound 282rac]	+ (+ indicates a value of 10 to less than 50)
100 to 1000 nM	100 to 1000 nM	100 to 1000 nM				CS(=O)(=O)NC(=O)c1ccc(N2CCC(N3CCC(c4cc5ccccc5c(=O)[nH]4)C3)CC2)cc1 (single isomer, unassigned) [Compound 342a]	− (− indicates a value of less than 10)
			< 10 nM	< 10 nM	100 to 1000 nM	CNC(=O)c1ccc(N2CCC(N3CCC(c4cc5c(F)cc(F)cc5c(=O)[nH]4)C3)CC2)cn1 (single isomer, unassigned) [Compound 186a]	+++ (+++ indicate a value of at least 100)
			100 to 1000 nM	100 to 1000 nM	> 10000 nM	CNC(=O)c1cc(C)c(N2CCC(N3CCC(c4cc5ccccc5c(=O)[nH]4)C3)CC2)c(C)n1 (single isomer, unassigned) [Compound 205a]	+ (+ indicates a value of 10 to less than 50)
< 10 nM	< 10 nM	10 to 100 nM				CS(=O)(=O)NC(=O)c1ccc(N2CCC(N3CCC(c4cc5ccccc5c(=O)[nH]4)C3)CC2)cc1 (single isomer, unassigned) [Compound 342b]	+ (+ indicates a value of 10 to less than 50)
			100 to 1000 nM	100 to 1000 nM	100 to 1000 nM	O=c1[nH]c(C2CCN(C3CCN(c4ccc(F)cc4F)CC3)C2)nc2ccccc12 (single isomer, unassigned) [Compound 107b]	− (− indicates a value of less than 10)
1000 to 10000 nM	1000 to 10000 nM	> 10000 nM				CNC(=O)c1ccc(N2CCC(N3CCC(c4cc5cccc(OC)c5c(=O)[nH]4)C3)CC2)cn1 (single isomer, unassigned) [Compound 249a]	− (− indicates a value of less than 10)
			< 10 nM	< 10 nM	1000 to 10000 nM	CNC(=O)c1ccc(N2CC(N3CCCC(c4nc5ccccc5c(=O)[nH]4)CC3)C2)cn1 (single isomer, unassigned) [Compound 145b]	+++ (+++ indicate a value of at least 100)
			< 10 nM	< 10 nM	100 to 1000 nM	CNC(=O)c1ccc(N2CCC(N3CCCC(c4cc5ccccc5c(=O)[nH]4)C3)CC2)cn1 (single isomer, unassigned) [Compound 100a]	+++ (+++ indicate a value of at least 100)
			10 to 100 nM	10 to 100 nM	100 to 1000 nM	NC(=O)c1ccc(N2CCC(N3CCC(c4nc5ccccc5c(=O)[nH]4)C3)CC2)cn1 (single isomer, unassigned) [Compound 123a]	+ (+ indicates a value of 10 to less than 50)
100 to 1000 nM	100 to 1000 nM	> 10000 nM				CNC(=O)c1ccc(N2CCC(N3CCC(F)(c4nc5ccccc5c(=O)[nH]4)C3)CC2)cn1 (single isomer, unassigned) [Compound 328a]	+ (+ indicates a value of 10 to less than 50)
1000 to 10000 nM	1000 to 10000 nM	> 10000 nM				CCc1ccc(C2CCN(C3CCN(c4cnc(C(=O)NC)cc4C(F)(F)F)CC3)C2)[nH]c1=O (single isomer, unassigned) [Compound 298a]	− (− indicates a value of less than 10)
